Key:
LXRα = target: T1, LXRα (Homo sapiens, UniProt Q13133); test: LXRα transactivation, luciferase reporter assay in HepG2 cells; type: cell-based; settings: for EC50: dose-response 1-50 μM, mean ± SE, read-out: LXRα Affinity (EC50); for Emax at 10 µM: compound 10 μM vs GW3965 10 μM (=100%), NA = no activity at 10 μM, read-out: LXRα Efficacy (% vs GW3965)
T1 construct: expressed in transfected cells; host or cells: HepG2
T1 sequence (Q13133 209-447 limits assumed): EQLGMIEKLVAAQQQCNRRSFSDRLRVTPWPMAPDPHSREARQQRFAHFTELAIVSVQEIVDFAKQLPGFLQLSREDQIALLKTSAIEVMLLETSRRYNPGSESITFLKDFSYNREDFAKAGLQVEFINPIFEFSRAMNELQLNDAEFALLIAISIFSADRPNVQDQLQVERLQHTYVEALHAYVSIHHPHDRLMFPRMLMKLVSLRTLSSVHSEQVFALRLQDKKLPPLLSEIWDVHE
Description: Derivatives 4–30 were tested for their activity in a luciferase reporter assay with HepG2 and HEK-293T cells transfected with LXRα,β and GPBAR1, respectively. Table 1 reports the efficacy of tested compounds compared to those of reference compounds, GW3965 for LXRα/β and TLCA for GPBAR1.
Each compound was tested at the concentration of 10 μM and transactivation activity of GW3965 on LXRs and TLCA on CRE (i.e. TGR5/GPBAR1) was considered equal to 100%.
To evaluate LXRα mediated transactivation, HepG2 cells were transfected with 20 ng of the reporter vector p(UAS)5XTKLuc, 100 ng of a vector containing the ligand binding domain of LXRα cloned upstream of the GAL4-DNA binding domain (i.e. pSG5-LXRαLBD-GAL4DBD) and […] pGL4.70 (Promega), a vector encoding the human Renilla gene. To evaluate GPBAR1 mediated transactivation, HEK-293T cells were transfected with 200 ng of human pGL4.29 (Promega), a reporter vector containing a cAMP response element (CRE) that drives the transcription of the luciferase reporter gene luc2P, with 100 ng of pCMVSPORT6-human GPBAR1, and with 100 ng of pGL4.70 Renilla. To evaluate FXR mediated transactivation, HepG2 cells were transfected with 100 ng of human pSG5-FXR, 100 ng of human pSG5-RXR, 200 ng of the reporter vector p(hsp27)-TK-LUC containing the FXR response element IR1 cloned from the promoter of heat shock protein 27 (hsp27) and with 100 ng of pGL4.70 Renilla. At 24 h post-transfection, cells were stimulated 18 h with 10 μM GW3965, TLCA, or CDCA and compounds 4–30 (10 μM). Luciferase activities were assayed and normalized with Renilla activities. Dose-response curves were performed in HepG2 and HEK-293T cells transfected as described above and then treated with increasing concentrations of compounds 4, 5, 8, 9, 12–15, 17, 20, 21, 24, 25, 27, 29, 30 (1, 5, 10, 25 and 50 μM). At 18 h post stimulations, cellular lysates were assayed for luciferase and Renilla activities using the Dual-Luciferase Reporter assay system (E1980, Promega). Luminescence was measured using Glomax 20/20 luminometer (Promega). Luciferase activities (RLU) were normalized with Renilla activities (RRU).

GPBAR1 = target: T2, GPBAR1 (Homo sapiens, UniProt Q8TDU6); test: GPBAR1 transactivation, CRE-luciferase reporter assay in HEK-293T cells; type: cell-based; settings: dose-response 1-50 μM, mean ± SE of 3 experiments in duplicate, read-out: GPBAR1 Affinity (EC50)
T2 construct: expressed in transfected cells; host or cells: HEK-293T
T2 sequence (Q8TDU6 1-330): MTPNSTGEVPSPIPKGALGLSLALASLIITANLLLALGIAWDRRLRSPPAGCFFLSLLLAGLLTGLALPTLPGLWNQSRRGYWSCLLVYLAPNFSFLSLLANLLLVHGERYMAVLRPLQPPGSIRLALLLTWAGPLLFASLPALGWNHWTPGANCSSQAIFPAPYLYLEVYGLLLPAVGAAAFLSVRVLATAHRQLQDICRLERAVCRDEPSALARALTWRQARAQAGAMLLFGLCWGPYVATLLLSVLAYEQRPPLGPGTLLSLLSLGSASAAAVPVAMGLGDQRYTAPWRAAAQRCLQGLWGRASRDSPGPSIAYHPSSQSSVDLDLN

[1] = system: pro-glucagon mRNA expression; test: RT-PCR of GPBAR1 target gene pro-glucagon in Glutag cells; settings: Mus musculus, 18 h, read-out: EC50 for induction of pro-glucagon mRNA
Description: (§1) HepG2 and Glutag cells were plated at 1 × 10^6 cells/well in a 6 well plate.
(§2) Total RNA was isolated from HepG2 or Glutag cells and from animal tissues (liver and terminal ileum) using the TRIzol reagent according to the manufacturer’s specifications (Invitrogen). One microgram of purified RNA was treated with DNase-I and reverse transcribed with Superscript II (Invitrogen). For Real Time PCR, 25 ng template was dissolved in 25 μL containing 200 nmol/L of each primer and 12.5 μL of 2 × SYBR FAST Universal ready mix (Invitrogen). […] The relative mRNA expression was calculated and expressed as 2^(−ΔΔCt).

SREBP1c mRNA expression = test: RT-PCR of LXRα target gene SREBP1c in HepG2 cells; settings: Homo sapiens, HepG2, 18 h, read-out: EC50 for induction of SREBP1c gene expression
Description: as §1, §2

ABCA1 mRNA expression = test: RT-PCR of LXRα target gene ABCA1 in HepG2 cells; settings: Homo sapiens, HepG2, 18 h, read-out: EC50 for induction of ABCA1 gene expression
Description: as §1, §2

C57BL6 mice = test: Two-week oral administration to intact C57BL6 mice (serum chemistry, liver histology, liver and ileum gene expression); type: in vivo; settings: 30 mg/Kg daily by oral gavage, two weeks
Description: C57BL6 mice were administered with 14 (30 mg/Kg daily by oral gavage) for two weeks.
C57BL6 mice were originally donated by Dr. Galya Vassileva (Schering-Plough Research Institute, Kenilworth). The colonies were maintained in the animal facility of University of Perugia. […] Mice were housed under controlled temperatures (22 °C) and photoperiods (12:12-h light/dark cycle), allowed unrestricted access to standard mouse chow and tap water and allowed to acclimate to these conditions for at least 5 days before inclusion in an experiment. The study was conducted in agreement with the Italian law and the protocol was approved by ethical committee of University of Perugia and by National committee of Ministry of Health (permission n. 42/2014-B). The Veterinarian monitored the health and body conditions of the animals daily in the animal facility. The study protocol caused minor suffering; however, animals that lost more than 25% of the initial body weight were euthanized. At the day of sacrifice mice were deeply anesthetized with a mixture of tiletamine […] and zolazepam […]/xylazine at a dose of 50/5 mg/Kg. Blood, liver and terminal ileum were collected for further analysis. Aspartate aminotransferase (AST), total cholesterol and triglycerides were measured by routine biochemical clinical chemistry. For histological examination, portions of liver lobes were fixed in 10% formalin, embedded in paraffin, sectioned (5 μm thin) and stained with Hematoxylin/Eosin (H&E) for morphometric analysis.

[2] = system: GPBAR1 (also known as TGR5); settings: in vitro studies; cited from earlier work

| SMILES | EC50 (LXRα) | EC50 (GPBAR1) | other results |
| --- | --- | --- | --- |
| CC(C)=CCCC(C)C1CCC2C3CC(O)C4CC(O)CCC4(C)C3CCC12C (stereo not shown) [Compound 4] | 6.99 ± 0.31 µM | – | – |
| CC(C)CCCC(C)C1CCC2C3CC(O)C4CC(O)CCC4(C)C3CCC12C (stereo not shown) [Compound 5] | 8.2 ± 0.16 µM | – | Emax at 10 µM (LXRα): 73% |
| C=CCCC(C)C1CCC2C3CC(O)C4CC(O)CCC4(C)C3CCC12C (stereo not shown) [Compound 8] | 2.7 ± 0.65 µM | – | – |
| CCCCC(C)C1CCC2C3CC(O)C4CC(O)CCC4(C)C3CCC12C (stereo not shown) [Compound 9] | 5.1 ± 0.43 µM | – | – |
| CC(CCCCc1ccccc1)C1CCC2C3CC(O)C4CC(O)CCC4(C)C3CCC12C (stereo not shown) [Compound 12] | 12.4 ± 0.41 µM | – | Emax at 10 µM (LXRα): 63% |
| CC(C)=CCC(C)C1CCC2C3CC(O)C4CC(O)CCC4(C)C3CCC12C (stereo not shown) [Compound 13] | 22.3 ± 3.05 µM | 4.2 ± 0.79 µM | – |
| CC(C)CCC(C)C1CCC2C3CC(O)C4CC(O)CCC4(C)C3CCC12C (stereo not shown) [Compound 14] | 3.2 ± 0.03 µM | 4.9 ± 0.2 µM | EC50 [1]: 6.5 µM; EC50 (SREBP1c mRNA expression): 5.8 µM; EC50 (ABCA1 mRNA expression): 8.3 µM; expression of GPBAR1 target genes GLP1 and Fgf21 in terminal ileum (C57BL6 mice; Real-Time PCR): increases; liver expression of steatosis marker genes FAS, SREBP1c, CD36 and PPARs (C57BL6 mice; Real-Time PCR on liver tissue): does not induce; liver histology (H&E staining), fat deposition (C57BL6 mice; vs control): no differences; plasmatic level of AST (C57BL6 mice; vs control): no effects; plasmatic level of cholesterol (C57BL6 mice; vs control): no effects; plasmatic level of triglycerides (C57BL6 mice; vs control): no effects; Emax at 10 µM (LXRα): 109% |
| C=CCC(C)C1CCC2C3CC(O)C4CC(O)CCC4(C)C3CCC12C (stereo not shown) [Compound 15] | – | 3.7 ± 0.38 µM | – |
| C=CC(C)C1CCC2C3CC(O)C4CC(O)CCC4(C)C3CCC12C (stereo not shown) [Compound 17] | – | 2.54 ± 0.015 µM | – |
| CCCC[C@@H](C)[C@H]1CCC2C3CC[C@@H]4C[C@H](O)CC[C@]4(C)C3CC[C@@]21C (stereo partly shown) [Compound 20] | – | 6.8 ± 0.08 µM | – |
| CC(C)=CCC[C@@H](C)[C@H]1CCC2C3CC[C@@H]4C[C@H](O)CC[C@]4(C)C3CC[C@@]21C (stereo partly shown) [Compound 21] | – | 5.9 ± 0.055 µM | – |
| CC[C@@H](C)[C@H]1CCC2C3CC[C@@H]4C[C@H](O)CC[C@]4(C)C3CC[C@@]21C (stereo partly shown) [Compound 24] | – | 0.91 ± 0.092 µM | – |
| CC(C)=CCC[C@@H](C)[C@H]1CCC2C3CC[C@H]4C[C@@H](O)CC[C@]4(C)C3CC[C@@]21C (stereo partly shown) [Compound 25] | – | 7.6 ± 0.71 µM | – |
| C=CCC[C@@H](C)[C@H]1CCC2C3CC[C@H]4C[C@@H](O)CC[C@]4(C)C3CC[C@@]21C (stereo partly shown) [Compound 27] | – | 1 ± 0.062 µM | – |
| C=C[C@@H](C)[C@H]1CCC2C3CC[C@H]4C[C@@H](O)CC[C@]4(C)C3CC[C@@]21C (stereo partly shown) [Compound 29] | – | 4.9 ± 0.06 µM | – |
| CC[C@@H](C)[C@H]1CCC2C3CC[C@H]4C[C@@H](O)CC[C@]4(C)C3CC[C@@]21C (stereo partly shown) [Compound 30] | – | 1.98 ± 0.145 µM | – |
| C[C@H](CCC(=O)O)[C@H]1CC[C@H]2[C@@H]3C[C@H](O)[C@@H]4C[C@H](O)CC[C@]4(C)[C@H]3CC[C@]12C [HDCA, hyodeoxycholic acid] | – | – | EC50 [2]: 31.6 µM |

Source: article PMC5324103 (Scientific Reports, 2017)
